Reference: the supplement of paper PMC10307832

Tests used:
Experiment in all cases: relative viability (nuclei count vs DMSO), 5 days (fraction); higher = more cells survive
KIN001-266 + Pemetrexed = compound: CCN1CCC(CC1)N2C=C(N=N2)CNC3=CC4=C(C(=CN=C4C(=C3)Cl)C#N)NC5=CC(=C(C=C5)F)Cl [KIN001-266] + Nc1nc2[nH]cc(CCc3ccc(C(=O)N[C@@H](CCC(=O)O)C(=O)O)cc3)c2c(=O)[nH]1 [Pemetrexed] (partner 0.2 µM)
In short: (§1)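 For relative viability, nuclei counts in treated wells were divided by those in vehicle wells. Lung cancer cell lines had been pin-tool dosed in 1536-well plates the day after seeding and cultured for 5 days, then fixed and stained in one step (final 0.05% Triton X-100, 1% formaldehyde, 1 ug/ml Hoechst) and imaged at 4×. Doses were one drug alone or a fixed anchor-drug dose plus five library-drug doses (not always all listed) in √10 steps, and values are duplicate-plate medians.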

KIN001-266 + OSI-027 = compound: CCN1CCC(CC1)N2C=C(N=N2)CNC3=CC4=C(C(=CN=C4C(=C3)Cl)C#N)NC5=CC(=C(C=C5)F)Cl [KIN001-266] + COc1cccc2cc(-c3nc([C@H]4CC[C@H](C(=O)O)CC4)n4ncnc(N)c34)[nH]c12 [OSI-027] (partner 0.5 µM)
In short: as §1

KIN001-266 + Foretinib = compound: CCN1CCC(CC1)N2C=C(N=N2)CNC3=CC4=C(C(=CN=C4C(=C3)Cl)C#N)NC5=CC(=C(C=C5)F)Cl [KIN001-266] + COc1cc2c(Oc3ccc(NC(=O)C4(C(=O)Nc5ccc(F)cc5)CC4)cc3F)ccnc2cc1OCCCN1CCOCC1 [Foretinib] (partner 0.25 µM)
In short: as §1

KIN001-266 + AZD7762 = compound: CCN1CCC(CC1)N2C=C(N=N2)CNC3=CC4=C(C(=CN=C4C(=C3)Cl)C#N)NC5=CC(=C(C=C5)F)Cl [KIN001-266] + NC(=O)Nc1cc(-c2cccc(F)c2)sc1C(=O)N[C@H]1CCCNC1 [AZD7762] (partner 0.2 µM)
In short: as §1

Cell Line	relative viability (KIN001-266 + Pemetrexed; first compound 0.08 µM)	relative viability (KIN001-266 + Pemetrexed; first compound 0.253 µM)	relative viability (KIN001-266 + Pemetrexed; first compound 0.8 µM)	relative viability (KIN001-266 + Pemetrexed; first compound 2.53 µM)	relative viability (KIN001-266 + Pemetrexed; first compound 8 µM)	relative viability (KIN001-266 + OSI-027; first compound 0.08 µM)	relative viability (KIN001-266 + OSI-027; first compound 0.253 µM)	relative viability (KIN001-266 + OSI-027; first compound 0.8 µM)	relative viability (KIN001-266 + OSI-027; first compound 2.53 µM)	relative viability (KIN001-266 + OSI-027; first compound 8 µM)	relative viability (KIN001-266 + Foretinib; first compound 0.08 µM)	relative viability (KIN001-266 + Foretinib; first compound 0.253 µM)	relative viability (KIN001-266 + Foretinib; first compound 0.8 µM)	relative viability (KIN001-266 + Foretinib; first compound 2.53 µM)	relative viability (KIN001-266 + Foretinib; first compound 8 µM)	relative viability (KIN001-266 + AZD7762; first compound 0.08 µM)	relative viability (KIN001-266 + AZD7762; first compound 0.253 µM)	relative viability (KIN001-266 + AZD7762; first compound 0.8 µM)	relative viability (KIN001-266 + AZD7762; first compound 2.53 µM)	relative viability (KIN001-266 + AZD7762; first compound 8 µM)
NCI-H2342	0.785	0.738	0.619	0.705	0.91	0.607	0.626	0.564	0.708	0.754	1.09	1.04	1.17	1.15	1.07	0.559	0.492	0.451	0.431	0.545
A-427	1.01	0.96	1.04	0.881	0.95	0.492	0.478	0.499	0.475	0.48	1.06	1.07	0.983	0.992	0.971	0.722	0.697	0.761	0.644	0.599
H3255	0.55	0.585	0.5	0.506	0.505	0.555	0.618	0.52	0.542	0.606	0.801	0.862	0.797	0.957	0.725	0.846	0.731	0.792	0.908	0.8
NCI-H1734	0.425	0.426	0.435	0.388	0.417	0.621	0.583	0.578	0.549	0.522	0.951	0.801	0.704	0.813	0.798	0.566	0.635	0.438	0.631	0.461
NCI-H1993	0.562	0.554	0.637	0.586	0.596	0.562	0.537	0.607	0.582	0.63	0.86	0.777	0.758	0.749	0.675	1.06	0.815	0.673	0.827	0.624
NCI-H1437	0.32	0.329	0.329	0.3	0.241	0.938	0.91	0.862	0.85	0.56	1.21	1.28	1.26	1.35	1.04	1.12	1.16	1.12	1.1	0.963
201T	0.342	0.375	0.352	0.34	0.319	0.786	0.53	0.8	0.776	0.735	1.07	1.11	1.13	1.12	1.14	0.66	0.629	0.577	0.54	0.681
NCI-H358	0.187	0.163	0.178	0.158	0.146	0.79	0.72	0.997	0.903	0.596	0.728	0.734	0.629	0.631	0.397	0.574	0.459	0.41	0.547	0.474
ChaGo-K-1	0.264	0.268	0.255	0.25	0.237	0.657	0.551	0.553	0.647	0.459	0.904	0.989	0.756	0.793	0.871	0.858	0.924	0.856	0.811	0.585
LOU-NH91	0.369	0.392	0.385	0.378	0.425	0.753	0.76	0.434	0.608	0.546	0.943	0.924	0.623	0.804	0.724	0.785	0.617	0.711	0.711	0.734
HOP-62	0.313	0.304	0.469	0.353	0.381	0.888	0.893	0.877	0.765	0.797	0.96	1.11	1.15	1.13	1.13	0.583	0.671	1.03	0.729	0.447
NCI-H1915	0.507	0.466	0.504	0.469	0.575	0.703	0.635	0.629	0.661	0.49	1.14	1.06	1.07	1.13	1.11	0.703	0.729	0.687	0.729	0.727
NCI-H3122	0.206	0.2	0.198	0.197	0.214	0.965	0.905	0.917	0.804	0.8	0.98	0.961	0.94	0.918	0.914	0.937	1.15	1.08	0.947	0.956
NCI-H1651	0.6	0.535	0.531	0.514	0.58	0.709	0.787	0.743	0.753	0.636	0.805	0.71	0.774	0.757	0.731	0.46	0.44	0.376	0.328	0.49
NCI-H838	0.242	0.249	0.26	0.249	0.236	0.36	0.435	0.423	0.361	0.343	1.03	1.09	1.06	0.928	0.717	0.945	0.83	0.886	0.914	0.924
NCI-H596	0.451	0.481	0.498	0.403	0.477	0.858	0.635	0.616	0.638	0.529	0.963	0.986	0.901	0.775	0.737	1.2	0.931	1.17	0.936	1.04

Cell Line	relative viability (KIN001-266 + Pemetrexed; first compound 0.08 µM)	relative viability (KIN001-266 + Pemetrexed; first compound 0.253 µM)	relative viability (KIN001-266 + Pemetrexed; first compound 0.8 µM)	relative viability (KIN001-266 + Pemetrexed; first compound 2.53 µM)	relative viability (KIN001-266 + Pemetrexed; first compound 8 µM)	relative viability (KIN001-266 + OSI-027; first compound 0.08 µM)	relative viability (KIN001-266 + OSI-027; first compound 0.253 µM)	relative viability (KIN001-266 + OSI-027; first compound 0.8 µM)	relative viability (KIN001-266 + OSI-027; first compound 2.53 µM)	relative viability (KIN001-266 + OSI-027; first compound 8 µM)	relative viability (KIN001-266 + Foretinib; first compound 0.08 µM)	relative viability (KIN001-266 + Foretinib; first compound 0.253 µM)	relative viability (KIN001-266 + Foretinib; first compound 0.8 µM)	relative viability (KIN001-266 + Foretinib; first compound 2.53 µM)	relative viability (KIN001-266 + Foretinib; first compound 8 µM)	relative viability (KIN001-266 + AZD7762; first compound 0.08 µM)	relative viability (KIN001-266 + AZD7762; first compound 0.253 µM)	relative viability (KIN001-266 + AZD7762; first compound 0.8 µM)	relative viability (KIN001-266 + AZD7762; first compound 2.53 µM)	relative viability (KIN001-266 + AZD7762; first compound 8 µM)
NCI-H441	0.251	0.253	0.233	0.261	0.248	0.829	0.695	0.585	0.563	0.479	1.04	0.889	1.02	0.781	0.689	0.941	1.2	1.11	1.07	1.19
NCI-H650	1.15	0.988	1.09	1.02	0.946	0.62	0.591	0.563	0.493	0.55	1.07	1.02	0.98	1.04	0.988	1.09	1.17	1	1.08	1.23
NCI-H1355	0.987	0.995	1.1	1	1.01	0.476	0.426	0.4	0.373	0.397	0.922	0.956	0.924	0.918	0.88	0.771	0.734	0.73	0.556	0.521
NCI-H2347	0.455	0.463	0.43	0.452	0.433	0.606	0.456	0.296	0.374	0.255	1.04	0.622	0.746	0.844	0.632	0.77	0.799	0.771	0.736	0.537
LCLC-97TM1	0.193	0.191	0.171	–	0.227	0.636	0.69	0.45	0.557	0.532	0.983	0.914	0.903	0.888	0.909	0.339	–	0.281	–	0.212
EMC-BAC-2	0.505	0.504	0.449	0.462	0.529	0.456	0.448	0.373	0.419	0.365	1.13	1.09	0.972	1.03	1	1.17	1.18	1.15	1.16	1.21
NCI-H1975	0.314	0.305	0.297	0.285	0.29	0.692	0.776	0.769	0.691	0.555	0.972	0.96	0.966	1.05	1.04	0.733	0.689	0.776	0.756	0.678
BEN	0.982	0.776	0.919	0.68	0.744	0.296	0.335	0.305	0.274	0.283	0.708	0.88	0.755	0.407	0.691	0.729	0.705	0.676	0.539	0.709
SW 900	0.494	0.496	0.491	0.47	0.43	0.738	0.366	0.551	0.485	0.325	1.08	0.987	0.908	0.835	0.697	0.639	0.601	0.527	0.522	0.327
NCI-H23	0.627	0.634	0.658	0.643	0.596	0.651	0.618	0.541	0.398	0.485	0.924	0.83	0.975	0.995	0.862	0.195	0.249	0.304	0.22	0.246
CAL-12T	1.25	1.1	1.15	1.2	1.15	0.696	0.742	0.538	0.508	0.509	1.21	1.01	1.02	0.974	1.11	0.633	0.639	0.574	0.642	0.606
EPLC-272H	0.373	0.364	0.374	0.319	0.323	0.306	0.303	0.242	0.249	0.264	0.777	0.763	0.728	0.636	0.208	0.304	0.212	0.191	0.185	0.371
LCLC-103H	0.471	0.482	0.47	0.426	0.514	0.49	0.469	0.452	0.484	0.469	0.837	0.716	0.987	0.772	0.726	0.814	0.843	0.82	0.791	0.73
NCI-H2405	1.08	1.04	1.2	0.84	0.932	0.652	0.671	0.609	0.561	0.515	1.06	1.02	1.02	1.05	0.713	0.761	0.752	0.865	0.739	0.488
HCC-15	0.234	0.222	0.221	0.206	0.225	0.71	0.699	0.63	0.524	0.518	0.913	0.964	0.886	0.817	0.707	1.23	1.14	1.18	0.6	1.06
